Read-outs that look alike come from different tables or passages of the source.

The test system of assay [1] is hBD-2. As to the kind of experiment: cells. Particulars: HaCat; for induction de la synthèse du peptide hBD-2: starting materials of the enzymatic synthesis, in words. It is filed as cell-based, human. An excerpt:
(§1) Il est connu de WO 97/45101 que les esters d'α-alkylglucoside peuvent être utilisés comme agent anti-microbien et/ou anti-fongique pour agir en tant que conservateur dans une composition, pour la préserver d'un développement microbien. D'autre part, les propriétés moussantes des esters de méthyl glucose sont décrites dans Desai et al (« Sofw Journal Seife, Oele, Fette, Wachse, Verlag für chemische Industrie » 1991). • Modèle cellulaire : lignée cellulaire HaCat, kératynocytes d'origine humaine, primoculture de kératinocytes humains • Modèle tissulaire : • Explants de peau normale provenant de déchet opératoire de chirurgie esthétique • Explants de gencive normale provenant de déchet opératoire de chirurgie implantatoire ou d'épithélium gingival reconstruit à partir de cellules épithéliales orales primaires • ➢ Les cellules HaCat sont ensemencées et cultivées en plaque 6 puits à 200 000 cellules/puits sous un volume de 2 ml de milieu de culture DMEM 1640 : (Ref: Invitrogen) complémenté par 10 % de sérum de veau foetal (SVF, Ref : CH30160.02 Perbio-Hyclone) pendant 18 h (sur la nuit). • ➢ A T0 les cellules sont lavées avec du tampon Phosphate (PBS, Ref: 52100-039 Invitrogen) puis privées en sérum pour les rendre quiescentes pendant 24 h (ralentissement de leur croissance et élimination de toute trace de facteurs susceptibles de perturber les effets induits par les traitements ultérieurs). • ➢ A T0+24 h les cellules sont traitées par des cytokines pro-inflammatoires (TNF-α à 10 ng/ml, IL1-β à 10 ng/ml) ou des éléments bactériens (LPS à 50 ng/ml, SEB à 100 ng/ml) ou des actifs potentiels de type « alkyle mono- ou di-ester d'α,β-butylglucoside » dilués dans du DMEM (1 ml/puits); La durée du traitement est de 3 h à 37°C. • ➢ Les kératinocytes primaires sont préparés à partir de peau normale provenant de déchet opératoire de chirurgie esthétique. […]
La méthode de RT-PCR quantitative utilisée est décrite dans le matériel et méthode. […]

Assay [2] concerns hBD-2. It is filed as cell-based, human. Particulars: skin explant, systemic, 3 µg/ml, 2 h and 15 h, in words.
Source text: as §1, with “esthétique. Ils sont ensemencés et cultivés en plaque 24 puits à 60 000 cellules/puits sous un volume de 0,5 ml de milieu de culture KSFM (Ref : 37010 Invitrogen) complémenté par de l'EGF (Epidermal Growth Factor) à 1,5 ng/ml et du BPE (bovine pituitary extract) à 25 µg/ml pendant 24 h. • ➢ A J0, le milieu est remplacé par 0,5 ml de milieu KSFM complet, additionné de 1,2 nM de calcium. • ➢ A J+3, les cellules sont traitées par des cytokines pro-inflammatoires TNF-α et IL 1-β à 10 ng/ml ou des actifs potentiels de type « alkyle mono- ou di-ester d'α,β-butylglucoside » dilués dans 0,3 ml de milieu KSFM complet, en présence de 1,2 nM de calcium.” for “esthétique.”

The next assay has as its system S. aureus. As to the kind of experiment: Adhesion of S. aureus on skin explant (modified Franz cell), count of adherent bacteria. It is filed as cell-based, Staphylococcus aureus. Particulars: topical 30 µg/ml. The source says: Pour révéler le complexe Antigène-Anticorps, le kit DAKO LSAB® (DAKO Corporation) est utilisé selon les recommandations du fournisseur. La révélation est réalisée à l'aide d'un substrat de la péroxydase : la 3,3'diaminobenzidine (DAB) (DAKO Corporation). La réaction enzymatique est révélée par une coloration brune. • ➢L'adhésion des micro-organismes est réalisée dans une cellule à double compartimentation, de type cellule de Franz modifiée. • ➢Une suspension de S.aureus (CIP 53.154) équivalente à 0,5.10^7 micro-organismes est introduite au sein du compartiment supérieur de la cellule. Le dispositif est incubé de 2 h à 37°C sous une atmosphère à 5 % de CO2. A la fin de cette période d'incubation, le surnageant est retiré afin d'éliminer les bactéries non adhérentes. Les échantillons de peau sont ensuite rincés deux fois avec 1 ml de mélange DMEM/HAMF12. Un dénombrement bactérien à l'issue de cette étape donne la proportion de bactéries ayant adhéré à l'explant (T+2 h). Un témoin est réalisé dans le but de déterminer l'adhésion non spécifique des bactéries. • ➢La stimulation de l'expression des β-défensines cutanées précède l'étape d'adhésion. Son objectif est d'étudier l'impact de l'induction des peptides antimicrobiens par des actifs potentiels de type « alkyle mono- ou di-ester d'α,β-butylglucoside » sur l'adhésion de souches bactériennes. Le traitement est effectué en topique ou en systémique. Le temps de stimulation des explants cutanés est de 24 h à 37°C en présence de 5 % de CO2.
Pour analyse, les explants sont retirés de leur cellule, des punchs de diamètres différents (3 mm, 4 mm et 6 mm) sont effectués pour un test MTT de survie, les marquages immuno-histologiques et les analyses des transcrits par RT-PCR. Le reste de peau est utilisé pour une estimation de la flore bactérienne adhérente.
Le dénombrement de la flore bactérienne adhérente exogène par unité de surface de peau a été effectué selon deux méthodes : • par dénombrement bactérien sur milieu solide • par comptage de la radioactivité émise (la souche contaminante étant marquée au H^3) est effectuée. […]
Après une application topique de 5 h et plusieurs rinçages de la surface épidermique d'un explant cutané, l'effet du traitement par l'α,β-LBG brut sur l'adhésion de S.aureus sur ce même explant a été quantifié par le dénombrement des germes adhérents à l'issue d'une mise en contact de 2 h. […]
Après application topique et plusieurs rinçages de la surface épidermique des explants cutanés, l'effet du traitement par les isoformes de l'ester de laurate de butylglucoside pur à 90 %, séparées, α seul, β seul, ou en mélange α,β-LBG (56 % α/44 % β) sur l'adhésion de S. aureus sur l'épiderme a été comparé après quantification des germes adhérents par dénombrement.

Regarding `CCCCCCCCCCCC(=O)O` [Acide Laurique], the “induction de la synthèse du peptide hBD-2” value in the assay with hBD-2 [1] is on record as “ne provoquent pas une induction”. Further, the fold induction at 10 µg/mL in the assay with hBD-2 [1] (Homo sapiens, hBD-2 mRNA, 3 h, 10 µg/ml, vs unstimulated control, read-out: Facteur d'induction (FI)) turned out to be 1.1.

For the compound laurate de butylglucoside [α-LBG pur], the “induction de l'expression du gène hBD-2” value with hBD-2 [2] (listed as α-LBG pure) is “ne présente pas d'activité”.

laurate de butylglucoside [αβ-LBG pur]: the “baisse moyenne de l'adhésion de S. aureus” value with S. aureus (LBG pur à 90 %, vs untreated control) was ~19%. The “induction de l'expression du gène hBD-2” value in the assay with hBD-2 [2] is reported as “potentiel inducteur significatif surtout après une durée de traitement longue”.

For the compound laurate de butylglucoside [β-LBG pur], the “limitation de l'adhésion de S. aureus” value in the assay with S. aureus (comparison of isoforms, in words) is reported as “en moyenne plus actif sur la limitation de l'adhésion de S. aureus que l'isoforme α-LBG”.

For αβ-butylglucoside, in the assay on hBD-2 [1], the “induction de la synthèse du peptide hBD-2” value is given as “ne provoquent pas une induction”.

For the origin of these results see patent EP1978972B1, “USE OF ALKYLGLUCOSIDE ESTERS AS BETA-DEFENSIN INDUCERS” (Pierre Fabre Dermo-Cosmétique, priority 2006, dated 2007).
